Experimental data reported in PubChem BioAssay (NCI).
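Where inhibition never reached the appropriate level, the endpoint shown equals the highest concentration tested. Otherwise, values were interpolated linearly from a five-concentration, 48-hour dose response in 96-well plates. The concentration for full growth arrest is given as TGI.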

Experiments:
Test in all cases: NCI-60 cell line screen, 48 h
HT29 colon = system: HT29 colon
BT-549 breast = system: BT-549 breast
A498 renal = system: A498 renal
HCT-116 colon = system: HCT-116 colon
KM12 colon = system: KM12 colon
MDA-MB-435 = system: MDA-MB-435
RPMI-8226 leukemia = system: RPMI-8226 leukemia
SK-MEL-2 melanoma = system: SK-MEL-2 melanoma
SF-539 CNS = system: SF-539 CNS
EKVX NSCLC = system: EKVX NSCLC
NCI-H226 lung = system: NCI-H226 lung
UO-31 renal = system: UO-31 renal
SK-OV-3 ovarian = system: SK-OV-3 ovarian
SN12C renal = system: SN12C renal
NCI-H522 lung = system: NCI-H522 lung
OVCAR-3 ovarian = system: OVCAR-3 ovarian
M14 melanoma = system: M14 melanoma
K-562 leukemia = system: K-562 leukemia
U251 CNS = system: U251 CNS
RXF 393 renal = system: RXF 393 renal
SK-MEL-28 melanoma = system: SK-MEL-28 melanoma
HOP-62 NSCLC = system: HOP-62 NSCLC
OVCAR-4 ovarian = system: OVCAR-4 ovarian
SW-620 colon = system: SW-620 colon
HCT-15 colon = system: HCT-15 colon
MDA-N = system: MDA-N
SK-MEL-5 melanoma = system: SK-MEL-5 melanoma
SNB-19 CNS = system: SNB-19 CNS
NCI/ADR-RES ovarian = system: NCI/ADR-RES ovarian
OVCAR-5 ovarian = system: OVCAR-5 ovarian
PC-3 prostate = system: PC-3 prostate
A549 NSCLC = system: A549 NSCLC
SR leukemia = system: SR leukemia
SNB-75 CNS = system: SNB-75 CNS
DU-145 prostate = system: DU-145 prostate
MDA-MB-231 breast = system: MDA-MB-231 breast
MOLT-4 leukemia = system: MOLT-4 leukemia
MALME-3M melanoma = system: MALME-3M melanoma
786-0 renal = system: 786-0 renal
HL-60(TB) leukemia = system: HL-60(TB) leukemia
IGROV1 ovarian = system: IGROV1 ovarian
HOP-92 NSCLC = system: HOP-92 NSCLC
HS 578T breast = system: HS 578T breast
MCF7 breast = system: MCF7 breast
COLO 205 colon = system: COLO 205 colon
UACC-62 melanoma = system: UACC-62 melanoma
SF-295 CNS = system: SF-295 CNS
NCI-H23 lung = system: NCI-H23 lung
SF-268 CNS = system: SF-268 CNS
LOX IMVI melanoma = system: LOX IMVI melanoma
ACHN renal = system: ACHN renal
OVCAR-8 ovarian = system: OVCAR-8 ovarian
CAKI-1 renal = system: CAKI-1 renal
TK-10 renal = system: TK-10 renal
UACC-257 melanoma = system: UACC-257 melanoma
HCC-2998 colon = system: HCC-2998 colon
NCI-H460 lung = system: NCI-H460 lung
CCRF-CEM leukemia = system: CCRF-CEM leukemia

Molecule `Clc1ccccc1NN(Cc1ccncc1)c1ccccc1Cl` has a TGI (HT29 colon) of 26.1 µM, a TGI (BT-549 breast) of 33.7 µM and a TGI (A498 renal) of 33.7 µM. The TGI (HCT-116 colon) was 25.7 µM, the TGI (KM12 colon) was 36 µM and the TGI (MDA-MB-435) was 29.7 µM. For the same molecule, the TGI (RPMI-8226 leukemia) was 42.2 µM, the TGI (SK-MEL-2 melanoma) was 28.6 µM and the TGI (SF-539 CNS) was 36 µM. For the same molecule, the TGI (EKVX NSCLC) was 30.1 µM, the TGI (NCI-H226 lung) was 39.3 µM and the TGI (UO-31 renal) was 63.3 µM. It also gave a TGI (SK-OV-3 ovarian) of 44.9 µM, a TGI (SN12C renal) of 26.5 µM and a TGI (NCI-H522 lung) of 29.6 µM. For the same molecule, the TGI (OVCAR-3 ovarian) was 26.3 µM, the TGI (M14 melanoma) was 35.7 µM and the TGI (K-562 leukemia) was 30.2 µM. For the same molecule, the TGI (U251 CNS) was 26.4 µM, the TGI (RXF 393 renal) was 31.8 µM and the TGI (SK-MEL-28 melanoma) was 40.7 µM. The TGI (HOP-62 NSCLC) was 29.2 µM, the TGI (OVCAR-4 ovarian) was 25.2 µM and the TGI (SW-620 colon) was 35.1 µM. For the same molecule, the TGI (HCT-15 colon) was 34.3 µM, the TGI (MDA-N) was 27.8 µM and the TGI (SK-MEL-5 melanoma) was 27.6 µM. The TGI (SNB-19 CNS) was 37 µM, the TGI (NCI/ADR-RES ovarian) was 32 µM and the TGI (OVCAR-5 ovarian) was 38.4 µM. It also gave a TGI (PC-3 prostate) of 28.9 µM, a TGI (A549 NSCLC) of 29.8 µM and a TGI (SR leukemia) of 32.2 µM. For the same molecule, the TGI (SNB-75 CNS) was 32.1 µM, the TGI (DU-145 prostate) was 34.8 µM and the TGI (MDA-MB-231 breast) was 27.8 µM. For the same molecule, the TGI (MOLT-4 leukemia) was 33.9 µM, the TGI (MALME-3M melanoma) was 35.9 µM and the TGI (786-0 renal) was 26.6 µM. It also gave a TGI (HL-60(TB) leukemia) of 37 µM, a TGI (IGROV1 ovarian) of 27.7 µM and a TGI (HOP-92 NSCLC) of 18.2 µM. For the same molecule, the TGI (HS 578T breast) was 48.6 µM, the TGI (MCF7 breast) was 53.5 µM and the TGI (COLO 205 colon) was 32 µM. It also gave a TGI (UACC-62 melanoma) of 30.7 µM, a TGI (SF-295 CNS) of 31.6 µM and a TGI (NCI-H23 lung) of 29.2 µM. It also gave a TGI (SF-268 CNS) of 36.2 µM, a TGI (LOX IMVI melanoma) of 30.3 µM and a TGI (ACHN renal) of 35.6 µM. It also gave a TGI (OVCAR-8 ovarian) of 29.3 µM.
With `C[C@@H]1CC[C@@H](C)[C@](C)(CCc2ccoc2)C/C=C\C=C/1C(=O)O` the TGI (HT29 colon) was over 50 µM, the TGI (BT-549 breast) was over 50 µM and the TGI (A498 renal) was over 50 µM. It also gave a TGI (HCT-116 colon) of over 50 µM, a TGI (KM12 colon) of over 50 µM and a TGI (CAKI-1 renal) of over 50 µM. It also gave a TGI (SK-MEL-2 melanoma) of over 50 µM, a TGI (SF-539 CNS) of over 50 µM and a TGI (EKVX NSCLC) of over 50 µM. It also gave a TGI (NCI-H226 lung) of over 50 µM, a TGI (UO-31 renal) of over 50 µM and a TGI (SK-OV-3 ovarian) of over 50 µM. It also gave a TGI (SN12C renal) of over 50 µM, a TGI (TK-10 renal) of over 50 µM and a TGI (OVCAR-3 ovarian) of over 50 µM. For the same molecule, the TGI (M14 melanoma) was over 50 µM, the TGI (K-562 leukemia) was over 50 µM and the TGI (UACC-257 melanoma) was over 50 µM. For the same molecule, the TGI (U251 CNS) was over 50 µM, the TGI (RXF 393 renal) was over 50 µM and the TGI (SK-MEL-28 melanoma) was over 50 µM. It also gave a TGI (HOP-62 NSCLC) of over 50 µM, a TGI (OVCAR-4 ovarian) of over 50 µM and a TGI (SW-620 colon) of over 50 µM. It also gave a TGI (HCT-15 colon) of over 50 µM, a TGI (MDA-N) of over 50 µM and a TGI (SK-MEL-5 melanoma) of over 50 µM. It also gave a TGI (SNB-19 CNS) of over 50 µM, a TGI (NCI/ADR-RES ovarian) of over 50 µM and a TGI (HCC-2998 colon) of over 50 µM. The TGI (OVCAR-5 ovarian) was over 50 µM, the TGI (PC-3 prostate) was over 50 µM and the TGI (A549 NSCLC) was over 50 µM. The TGI (SR leukemia) was over 50 µM, the TGI (SNB-75 CNS) was over 50 µM and the TGI (MDA-MB-231 breast) was over 50 µM. The TGI (MOLT-4 leukemia) was over 50 µM, the TGI (MALME-3M melanoma) was over 50 µM and the TGI (786-0 renal) was over 50 µM. The TGI (HL-60(TB) leukemia) was over 50 µM, the TGI (NCI-H460 lung) was over 50 µM and the TGI (CCRF-CEM leukemia) was over 50 µM. For the same molecule, the TGI (IGROV1 ovarian) was over 50 µM, the TGI (HOP-92 NSCLC) was over 50 µM and the TGI (HS 578T breast) was over 50 µM. For the same molecule, the TGI (MCF7 breast) was over 50 µM, the TGI (COLO 205 colon) was over 50 µM and the TGI (UACC-62 melanoma) was over 50 µM. It also gave a TGI (SF-295 CNS) of over 50 µM, a TGI (NCI-H23 lung) of over 50 µM and a TGI (LOX IMVI melanoma) of over 50 µM. It also gave a TGI (ACHN renal) of over 50 µM and a TGI (OVCAR-8 ovarian) of over 50 µM.
